Experiment [1] has as its target T1, human beta-glucocerebrosidase (GCase, CEREZYME) (Homo sapiens, UniProt P04062, R534H).
T1 sequence (P04062 40-536 R534H): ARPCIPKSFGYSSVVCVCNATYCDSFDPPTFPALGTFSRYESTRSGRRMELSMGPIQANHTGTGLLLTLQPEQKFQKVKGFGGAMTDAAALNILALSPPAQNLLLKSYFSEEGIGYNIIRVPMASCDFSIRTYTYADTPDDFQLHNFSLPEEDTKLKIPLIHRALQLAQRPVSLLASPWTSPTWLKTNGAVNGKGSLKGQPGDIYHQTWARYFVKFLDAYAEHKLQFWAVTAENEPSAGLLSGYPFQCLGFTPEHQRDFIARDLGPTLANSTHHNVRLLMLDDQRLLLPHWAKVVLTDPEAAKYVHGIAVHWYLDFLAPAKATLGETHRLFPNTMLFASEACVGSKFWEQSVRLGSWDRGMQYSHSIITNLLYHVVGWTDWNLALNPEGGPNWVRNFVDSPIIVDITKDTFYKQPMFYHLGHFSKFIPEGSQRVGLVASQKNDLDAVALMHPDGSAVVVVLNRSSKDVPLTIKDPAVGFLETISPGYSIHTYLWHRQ
In words: GCase activity fluorometric assay (inhibition, kinetics, pH dependence).
Protocol: (§1) Experiments set forth herein and related to the activity and function of GCase in the presence and absence of compounds of the invention were conducted using imiglucerase (CEREZYME, Genzyme) as the GCase. Cellular materials were obtained from fibroblast lysates expressing wild-type GCase and separately from fibroblast lysates derived from Gaucher disease patient cell lines carrying genotypes that encode either the N370S/N370S or F213I/L444P substitutions in GCase.
(§2) Quantitative determinations of enzymatic activity were performed by way of fluorometric assays utilizing the artificial substrate 4-methylumbelliferyl 2-acetamido-2-deoxy-beta-D-glucopyranoside (MUGlc). Reactions were performed at room temperature for 15-30 minutes, as indicated, using equal aliquots of enzyme (25 μL 20 mM Citrate Phosphate pH 5.5, 0.4% Taurodeoxycholate (TC)) and substrate (25 μL 20 mM Citrate Phosphate pH 5.5, MUGlc 1.6 mM). The amount of MU-fluorophore released in each assay was monitored fluorometrically using a spectrophotofluorometer following the addition of a 4-fold (200 μl) excess of 0.1M MAP, pH 10.5.
The activity of GCase was also assayed at several different pH values, including 4.5, 5.0, 5.5, 6.0, 6.5 and 7.0.

Another experiment concerns the target T2, wild type (WT) GCase (Homo sapiens, UniProt P04062, R534H).
T2 construct: purchased Genzyme
T2 sequence (P04062 40-536 R534H): T1 sequence (P04062 40-536 R534H)
In words: Heat denaturation of GCase at 50° C. The class given is biochemical. To be noted: for increase of the half life of GCase: 20 μM.

For experiment [2], the system named is Gaucher disease fibroblast cell lines harboring the N370S/N370S missense mutation. In words: Immunohistochemical fluorescence labeling, colocalization of GCase and Lamp-1. It is filed as cell-based, human. To be noted: N370S/N370S fibroblasts. Here is the method: Immunohistochemical fluorescence labeling of GD fibroblast cell lines harboring the N370S/N370S missense mutation were performed with rabbit polyclonal anti-GCase and mouse anti-Lamp-1 (lysosomal membrane associated protein). Cell nuclear staining was performed with 4′-6′-diamidino-2-phenylindole. […] (FIG. 6A, staining with anti-GCase in the presence of ABX; FIG. 6B, staining with anti-Lamp-1 in the presence of ABX; FIG. 6C, merger of FIGS. 6A and 6B; FIG. 6D, staining with anti-GCase in the presence of IFG; FIG. 6E, staining with anti-Lamp-1 in the presence of IFG; FIG. 6F, merger of FIGS. 6D and 6E; FIG. 6G, staining with anti-GCase in the absence of drug; FIG. 6H, staining with anti-Lamp-1 in the absence of drug; FIG. 6I, merger of FIGS. 6G and 6H.)
Immunohistochemical fluorescence labeling of Gaucher disease fibroblast cell lines harboring the N370S/N370S missense mutation was performed with rabbit polyclonal anti-GCase and mouse anti-Lamp-1 (lysosomal membrane associated protein). Cell nuclear staining was performed with 4′-6′-diamidino-2-phenylindole. […] Restored activity and trafficking of mutant GCase are the ultimate goals of a pharmacological chaperone-based therapeutic strategy.

Read-outs that look alike come from different tables or passages of the source.

Protocol for wild type (WT) GCase: as §1, §2

As a reminder, the IC50 is the concentration needed to halve the response being measured. `O=C(Nc1ccc(Br)cc1Br)c1ccccc1` [Dibromophenyl Benzamide]: the IC50 in experiment [1] is > 1000 µM.
For `OC[C@H]1CNC[C@@H](O)[C@@H]1O` [isofagomine], the “increase of the half life of GCase” value on wild type (WT) GCase is listed as “more than three-fold”.
For the molecule `Nc1ccc(Br)cc1Br` [Dibromoaniline], the concentration for half-maximal inhibition (IC50) entry in experiment [1] (0.3 mM MUbGlc as the substrate) is “Dibromoaniline (NI −1000)”.
Take `Nc1c(Br)cc(Br)cc1CN[C@H]1CC[C@H](O)CC1` [Ambroxol, trans-4-(2-amino-3,5-dibromobenzylamino) cyclohexanol]: the “increase of the half life of GCase” value on wild type (WT) GCase is “more than three-fold”. Also, at wild type (WT) GCase (highest concentration of ambroxol, vs DMSO), the “increase in GCase activity remaining after incubation” value was “more than three-fold”. Besides, the “Colocalization of GCase and Lamp-1 at the lysosome (rescue of mutant GCase trafficking)” value in experiment [2] is “Colocalization of GCase and Lamp-1 occurs at the lysosome”. Also, the “inhibition of GCase under acidic conditions” value in experiment [1] (25 μM ambroxol, pH 4.5, 5.0, 5.5, 6.0, 6.5 and 7.0 assayed) is given as “only marginally inhibited”. Also, the “mode of inhibition of GCase” value in experiment [1] (kinetic analysis) is recorded as “competitive inhibitor”.
Turning to `CN(Cc1cc(Br)cc(Br)c1N)C1CCCCC1` [Bromhexine, 2-amino-3,5-dibromo-N-cyclohexyl-N-methylbenzenemethanamine], in experiment [1], half-maximal inhibition (IC50) required 60 µM. Besides, the “inhibitory activity compared with ambroxol” value in experiment [1] (Table 2 IC50 values) is listed as “two fold reduction”.
Consider `Nc1c(Br)cc(Br)cc1Br` [Tribromoaniline], for which the half-maximal inhibitory concentration (IC50) result in experiment [1] (0.3 mM MUbGlc as the substrate) is recorded as “Tribromoaniline (NI −1000)”.
Consider `CCC(=O)Oc1c(Br)cc(Br)cc1Br` [Tribromophenyl Propanoate], for which the IC50 in experiment [1] was > 1000 µM.

(Values after patent publication US10653645B2, “Method for enhancing folding and transport of misfolded glucocerebrosidase” (The Hospital for Sick Children, priority 2007, dated 2020).)
